Here are results for eleven compounds from ChEMBL document CHEMBL1201862, “PubChem BioAssay data set” (2004).

Broadly, the GI50 is the concentration at which growth is held to half of that of the control.

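Assay format: 96-well plates, 48-hour exposure. GI50: concentration for 50% inhibition of growth.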 The source made the active and inactive calls. No stated cut-off is given here; in the data, active = GI50 up to about 1.1 µM and inactive = higher.

Among the test systems are 786-0; HCC 2998; HT-29; IGROV-1; K562; KM-20L2; M14; Malme-3M; NCI-H226; OVCAR-3; OVCAR-4; OVCAR-5; RPMI-8226; RXF 393; SK-MEL-5; SW-620; UACC-62; HOP-92; LOX IMVI; NCI-H522.
What all share (experiment): DTP human tumour cell line panel, 48 h

With `OCc1c[te]c(-c2ccccc2)c1`, the GI50 in the experiment on 786-0 was > 100 µM (inactive); with HCC 2998 it was > 100 µM (inactive); in the experiment with HT-29, > 10 µM (inactive); with IGROV-1, > 100 µM (inactive); in the experiment with K562, 38.5 µM (inactive); with KM-20L2, > 100 µM (inactive). The GI50 was 84.7 µM (inactive) in the experiment on M14; > 100 µM (inactive) in the experiment on Malme-3M; 24.9 µM (inactive) with NCI-H226; 15.5 µM (inactive) with OVCAR-3; 32 µM (inactive) in the experiment with OVCAR-4; > 100 µM (inactive) in the experiment with OVCAR-5. The GI50 with RPMI-8226 was 24 µM (inactive); with RXF 393, 42.2 µM (inactive); in the experiment with SK-MEL-5, 30.7 µM (inactive); with SW-620, > 100 µM (inactive); in the experiment with UACC-62, 31.3 µM (inactive).

`COc1ccc(/[N+]([O-])=C/c2ccc(OC(=S)S)c(OC)c2)cc1`: the GI50 with 786-0 is 50.6 µM (inactive); with HCC 2998, > 100 µM (inactive); in the experiment with HOP-92, 23.2 µM (inactive); with HT-29 it was 33.3 µM (inactive); in the experiment with IGROV-1, 39.3 µM (inactive); with K562 it was 21.7 µM (inactive). The GI50 is 38.5 µM (inactive) in the experiment on LOX IMVI; 46.8 µM (inactive) in the experiment with M14; 62.7 µM (inactive) in the experiment with Malme-3M; 65.6 µM (inactive) in the experiment on NCI-H226; 25.8 µM (inactive) in the experiment with NCI-H522; 43.9 µM (inactive) in the experiment with OVCAR-3. The GI50 was 17.4 µM (inactive) in the experiment on OVCAR-4; > 100 µM (inactive) in the experiment with OVCAR-5; 30.3 µM (inactive) in the experiment with RPMI-8226; 19.6 µM (inactive) with RXF 393; 24.5 µM (inactive) in the experiment on SK-MEL-5; 30.9 µM (inactive) with SW-620. Also, the GI50 in the experiment with UACC-62 was 99.3 µM (inactive).

Take `C[C@@H]1C[C@H](O)[C@]2(O)O[C@@H]3C[C@@]4(C=O)[C@@H](CC=C5[C@@H]4CC[C@]4(C)[C@@H](C6=CC(=O)OC6)CC[C@]54O)C[C@H]3O[C@@H]2O1`: the GI50 was 0.0124 µM (active) with 786-0; 0.0678 µM (active) with HCC 2998; 0.0277 µM (active) with HOP-92; < 0.0212 µM (active) in the experiment with HT-29; < 0.0118 µM (active) in the experiment on IGROV-1; < 0.0231 µM (active) in the experiment on K562. For the same compound, the GI50 in the experiment on LOX IMVI is 0.0176 µM (active); with M14, 0.0574 µM (active); with Malme-3M it was < 0.01 µM (active); in the experiment with NCI-H226 it was < 0.0191 µM (active); with NCI-H522, < 0.01 µM (active); with OVCAR-3, 0.0131 µM (active). The GI50 in the experiment on OVCAR-4 was < 0.0106 µM (active); in the experiment with OVCAR-5, 0.0951 µM (active); in the experiment on RPMI-8226, < 0.018 µM (active); in the experiment on RXF 393, < 0.0196 µM (active); with SK-MEL-5, < 0.0169 µM (active); in the experiment on SW-620 it was < 0.0227 µM (active). In the experiment with UACC-62, the GI50 is 0.0449 µM (active).

Take `COC(=O)C1(Cc2cccc(C)c2)Cc2c(C)cccc2C1=O` (stereo not drawn): the GI50 with 786-0 was 93.8 µM (inactive); with HCC 2998 it was 55.5 µM (inactive); in the experiment with HOP-92, 30.4 µM (inactive); with HT-29, 29.6 µM (inactive); with IGROV-1, 46.9 µM (inactive); in the experiment with K562, 35.9 µM (inactive). Further, the GI50 was 50.1 µM (inactive) with LOX IMVI; 34.4 µM (inactive) with M14; 33.9 µM (inactive) with Malme-3M; 44.9 µM (inactive) with NCI-H226; 22.6 µM (inactive) in the experiment with NCI-H522; 24.5 µM (inactive) in the experiment with OVCAR-3. Also, the GI50 in the experiment with OVCAR-4 was 41.7 µM (inactive); in the experiment on OVCAR-5, > 100 µM (inactive); in the experiment on RPMI-8226, > 100 µM (inactive); in the experiment with RXF 393, 29.4 µM (inactive); with SK-MEL-5, 38.5 µM (inactive); with SW-620, 31.4 µM (inactive). Moreover, the GI50 with UACC-62 is 46.8 µM (inactive).

As to `CCCCC1(C)C=C/C(=C2/C(=O)O/C(=C\C(=O)O)C2=O)O1` (stereo not drawn), the GI50 in the experiment with 786-0, in the experiment on HT-29, in the experiment on IGROV-1, in the experiment on K562, in the experiment with KM-20L2 and in the experiment with LOX IMVI was > 100 µM (inactive) each time. Also, the GI50 in the experiment with M14, with Malme-3M, in the experiment with NCI-H226, in the experiment with OVCAR-3, in the experiment with OVCAR-4 and with OVCAR-5 was > 100 µM (inactive) each time. Also, the GI50 with RPMI-8226, in the experiment on SK-MEL-5, in the experiment on SW-620 and with UACC-62 was > 100 µM (inactive) each time.

With `C=C[C@@]1(C)CC2(C=C(CO)C(O)O2)Oc2c1c(=O)oc1cccc(C)c21` (stereo partly drawn), the GI50 is 1.98 µM (inactive) with 786-0; 20.9 µM (inactive) in the experiment on HCC 2998; 20.2 µM (inactive) with HOP-92; 4.69 µM (inactive) in the experiment with HT-29; 13.8 µM (inactive) with IGROV-1; 2.23 µM (inactive) in the experiment with K562. Moreover, the GI50 was 3.61 µM (inactive) in the experiment with LOX IMVI; 3.52 µM (inactive) in the experiment on M14; 4.85 µM (inactive) in the experiment with Malme-3M; 17.9 µM (inactive) in the experiment on NCI-H226; 2.33 µM (inactive) in the experiment on NCI-H522; 3.16 µM (inactive) in the experiment on OVCAR-3. Moreover, the GI50 with OVCAR-4 is 3.78 µM (inactive); with OVCAR-5 it was 17.6 µM (inactive); in the experiment on RPMI-8226, 0.822 µM (active); in the experiment with RXF 393, 2.26 µM (inactive); in the experiment with SK-MEL-5, 12.7 µM (inactive); with SW-620, 1.55 µM (inactive). In addition, the GI50 with UACC-62 was 10.2 µM (inactive).

With `CN(C)c1ccc(-c2cc(O)c3cc4c(cc3n2)OCO4)cc1`, the GI50 in the experiment on 786-0, in the experiment on HCC 2998, with HT-29, in the experiment on IGROV-1, in the experiment with K562 and with KM-20L2 was > 100 µM (inactive) throughout. For the same compound, the GI50 with LOX IMVI, with M14, with Malme-3M, with NCI-H226, with OVCAR-3 and in the experiment with OVCAR-4 was > 100 µM (inactive) each time. Further, the GI50 in the experiment on RPMI-8226, with RXF 393, in the experiment with SK-MEL-5, in the experiment with SW-620 and in the experiment on UACC-62 was > 100 µM (inactive) each time.

Take `CC(C)(C)[Si](C)(C)O/N=C\c1ccc(O[Si](C)(C)C(C)(C)C)cc1`: the GI50 was 38.5 µM (inactive) in the experiment on 786-0; 36.8 µM (inactive) in the experiment with HCC 2998; 64.4 µM (inactive) in the experiment on HT-29; > 100 µM (inactive) in the experiment on IGROV-1; 45.9 µM (inactive) in the experiment with K562; 44.7 µM (inactive) in the experiment on KM-20L2. Besides, the GI50 in the experiment with LOX IMVI was 21.3 µM (inactive); in the experiment with M14 it was 62.1 µM (inactive); with Malme-3M, > 100 µM (inactive); in the experiment with OVCAR-3, 20.2 µM (inactive); in the experiment on OVCAR-4, > 100 µM (inactive); with OVCAR-5, 44.1 µM (inactive). For the same compound, the GI50 in the experiment with RPMI-8226 is 57.5 µM (inactive); in the experiment on RXF 393, 24.5 µM (inactive); in the experiment on SK-MEL-5, > 100 µM (inactive); with SW-620 it was > 100 µM (inactive); in the experiment on UACC-62, > 100 µM (inactive).

For the compound `COc1ccc2c(c1)c1c3c(ccc4ncn2c43)N(CCO)CCN=1`, the GI50 in the experiment on 786-0 was 0.0736 µM (active); in the experiment on HCC 2998 it was 0.147 µM (active); in the experiment with HOP-92 it was 2.07 µM (inactive); in the experiment with HT-29, 0.136 µM (active); with IGROV-1 it was 2.02 µM (inactive); with K562, 0.0586 µM (active). Also, the GI50 with LOX IMVI is 0.151 µM (active); with M14, 0.271 µM (active); in the experiment with Malme-3M, 0.187 µM (active); in the experiment on NCI-H226, 0.182 µM (active); with NCI-H522, 0.106 µM (active); with OVCAR-3 it was 0.213 µM (active). Also, the GI50 in the experiment on OVCAR-4 was 0.221 µM (active); in the experiment on OVCAR-5, 0.245 µM (active); in the experiment with RPMI-8226, 0.281 µM (active); in the experiment on RXF 393, 0.211 µM (active); with SK-MEL-5, 0.188 µM (active); in the experiment with SW-620, 0.802 µM (active). For the same compound, the GI50 with UACC-62 is 0.216 µM (active).

Turning to `CC1CC[C@]2(C(=O)O)CCC3(C)C(=C2[C@H]1C)C=CC1[C@@]2(C)CC[C@H](O)C(C)(C)C2CC[C@]13C` (stereo partly drawn), the GI50 with 786-0 was 29.9 µM (inactive); with HCC 2998 it was 29.7 µM (inactive); in the experiment with HOP-92, 18.7 µM (inactive); in the experiment with HT-29 it was 31.1 µM (inactive); with IGROV-1, 27.9 µM (inactive); with K562 it was 14.7 µM (inactive). Further, the GI50 in the experiment on LOX IMVI is 33.1 µM (inactive); in the experiment on M14 it was 44.9 µM (inactive); with Malme-3M it was 26.6 µM (inactive); in the experiment with NCI-H226, 66.1 µM (inactive); with NCI-H522 it was 23.1 µM (inactive); with OVCAR-3 it was 17.5 µM (inactive). In addition, the GI50 in the experiment with OVCAR-4 is 30.1 µM (inactive); in the experiment on OVCAR-5, 39.5 µM (inactive); in the experiment on RPMI-8226 it was 12.2 µM (inactive); with RXF 393, 3.8 µM (inactive); with SK-MEL-5 it was 21.4 µM (inactive); in the experiment with SW-620 it was 45.9 µM (inactive). The GI50 with UACC-62 is 42.2 µM (inactive).

As to `O=c1c2cc(Br)ccc2nc(-c2ccccc2Cl)n1NCC1(O)OCC(O)C(O)C1O` (stereo not drawn), the GI50 with 786-0, in the experiment with HT-29, in the experiment with K562, in the experiment on KM-20L2, in the experiment on LOX IMVI and with M14 was > 100 µM (inactive) in each case. Besides, the GI50 is > 100 µM (inactive) in the experiment on Malme-3M; 0.434 µM (active) in the experiment on NCI-H226; > 100 µM (inactive) with NCI-H522; 76.2 µM (inactive) in the experiment with OVCAR-3; 60.7 µM (inactive) in the experiment on OVCAR-4; > 100 µM (inactive) in the experiment with OVCAR-5. For the same compound, the GI50 with RPMI-8226 is 99.1 µM (inactive); with RXF 393, > 100 µM (inactive); with SK-MEL-5, > 100 µM (inactive); in the experiment on SW-620 it was > 100 µM (inactive); in the experiment on UACC-62 it was > 100 µM (inactive).
